Test results reported in patent publication US20240190855A1 (Relay Therapeutics, Inc., priority 2021, published 2024).

Target: T1, CDK2/Cyclin E complex (Homo sapiens, UniProt P24941)
T1 construct: purchased Eurofins 14-475
Assay: CDK2/Cyclin E fluorescence-based microfluidic mobility shift assay (CDK2 Biochemical Caliper Assay)
Conditions: read-out: Biochemical CDK2/CyclinE Caliper IC50
Outline: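 Microfluidic mobility-shift readout after EDTA termination measured phosphorylation of fluorescent FL Peptide 18 (1.5 uM final) in a 20 hr room-temperature reaction. Compounds were tested at 11 concentrations (3-fold).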

| Compound | IC50 [nM] |
| --- | --- |
| Cn1nc(C(F)(F)F)cc1C(=O)Nc1cc([C@H]2C[C@@H](OC(=O)NC3(C)CC3)CO2)[nH]n1 [Example 770] | ≤ 100 |
| COC(=O)c1cc(Nc2cc(C3CCCC3)[nH]n2)cnn1 [Example 800] | 1000 to 100000 |
| CC(C)NC(=O)O[C@H]1CC[C@@H](c2cc(NC=O)n[nH]2)C1 (single isomer, unassigned) [Example 441] | 250 to 1000 |
| CCOC(=O)c1cc2c(Nc3cc([C@H]4CC[C@@H](OC(=O)NC(C)C)C4)[nH]n3)nc(C)cn2n1 (single isomer, unassigned) [Example 462] | ≤ 100 |
| COCc1cc2c(Nc3cc([C@@H]4C[C@H](Oc5nncn5C5(C)CC5)CO4)[nH]n3)nccn2n1 [Example 719] | ≤ 100 |
| CC(C)c1ccnnc1O[C@@H]1CO[C@H](c2cc(Nc3nccn4nccc34)n[nH]2)C1 [Example 465] | ≤ 100 |
| Cc1cc(CC(=O)Nc2cc(C3CCNCC3)[nH]n2)on1 [Example 54] | 1000 to 100000 |
| COCc1cc2c(Nc3cc([C@H]4C[C@@H](OC(=O)N[C@@H](C)C(F)(F)F)CO4)[nH]n3)nccn2n1 [Example 721] | ≤ 100 |
| Cc1cc(C(F)(F)F)c(Nc2cc(C3CCCC3)[nH]n2)nn1 [Example 855] | 1000 to 100000 |
| Cc1cc(CC(=O)Nc2cc(C3(C)CCCC3)[nH]n2)on1 [Example 47] | 1000 to 100000 |
| c1cc2c(Nc3cc(C4CCCC4)[nH]n3)ncnn2c1 [Example 861] | 1000 to 100000 |
| Cc1ncccc1OC[C@H]1C[C@@H](c2cc(Nc3nccn4nccc34)n[nH]2)C1 [Example 513] | 100 to 250 |
| Cc1cc(CC(=O)Nc2cc([C@H]3CC[C@@H](N4CC5(CC5)NC4=O)C3)[nH]n2)on1 (single isomer, unassigned) [Example 90] | 250 to 1000 |
| Cn1ncc2cnc(Nc3cc([C@H]4C[C@@H](OC(=O)NC5(C)CC5)CO4)[nH]n3)cc21 [Example 724] | ≤ 100 |
| c1cc2ncsc2c(Nc2cc([C@@H]3CC[C@H](Oc4nscc4C4CC4)C3)[nH]n2)n1 (single isomer, unassigned) [Example 405] | ≤ 100 |
| COCc1cc2c(Nc3cc([C@H]4C[C@@H](Oc5nncn5C(C)(C)C)CO4)[nH]n3)nccn2n1 [Example 709] | ≤ 100 |
| Cc1cc2ccccc2c(Nc2cc(C3CCCC3)[nH]n2)n1 [Example 858] | 1000 to 100000 |
| COCc1cc2c(Nc3cc([C@@H]4C[C@H](OC(=O)N5[C@@H](C)CC[C@@H]5C)CO4)[nH]n3)nccn2n1 (single isomer, unassigned) [Example 580] | ≤ 100 |
| CC1(NC(=O)O[C@@H]2CO[C@H](c3cc(Nc4nccn5nccc45)n[nH]3)C2)CC1 [Example 782] | ≤ 100 |
| Cc1cc(CC(=O)Nc2cc([C@@H]3CC[C@H](Oc4nscc4C4CC4)C3)[nH]n2)on1 (single isomer, unassigned) [Example 128] | ≤ 100 |
| COCc1nc2ccnc(Nc3cc([C@H]4C[C@@H](OC(=O)NC5(C)COC5)CO4)[nH]n3)c2s1 [Example 696] | ≤ 100 |
| Cc1cc(CC(=O)Nc2cc([C@H]3CC[C@@H](OC(=O)N4CC5CC(C5)C4)C3)[nH]n2)on1 [Example 663] | ≤ 100 |

| Compound | IC50 [nM] |
| --- | --- |
| CC1(NC(=O)O[C@H]2CO[C@@H](c3cc(Nc4ccc5nccnc5n4)n[nH]3)C2)CC1 [Example 762] | 100 to 250 |
| c1ccc(-c2ncnc(Nc3cc(C4CCCC4)[nH]n3)n2)cc1 [Example 871] | 1000 to 100000 |
| Cc1cc(CC(=O)Nc2cc([C@@H]3CC[C@H](Oc4cccnc4C)C3)[nH]n2)on1 (single isomer, unassigned) [Example 358] | 250 to 1000 |
| CCS(=O)(=O)N[C@@H]1CC[C@H](c2cc(NC(=O)Cc3cc(C)no3)n[nH]2)C1 (single isomer, unassigned) [Example 133] | 1000 to 100000 |
| CC1(NC(=O)O[C@H]2CO[C@@H](c3cc(Nc4nccn5nccc45)n[nH]3)C2)CC1 [Example 781] | ≤ 100 |
| CC1(NC(=O)O[C@H]2CO[C@@H](c3cc(Nc4ncnc5[nH]ccc45)n[nH]3)C2)CC1 [Example 738] | 250 to 1000 |
| CC[C@@H](C)NC(=O)O[C@H]1CO[C@@H](c2cc(Nc3nccn4nc(COC)cc34)n[nH]2)C1 [Example 654] | ≤ 100 |
| Cc1cc(CC(=O)Nc2cc([C@H]3C[C@H](CC(=O)NC(C)C)C3)[nH]n2)on1 [Example 348] | 1000 to 100000 |
| Cn1cnc2c(Nc3cc([C@H]4C[C@@H](OC(=O)NC5(C)CC5)CO4)[nH]n3)nccc21 [Example 743] | 1000 to 100000 |
| COCc1cn2c(Nc3cc([C@H]4C[C@@H](OC(=O)NC5(C)CC5)CO4)[nH]n3)nccc2n1 [Example 906] | ≤ 100 |
| CC1(NC(=O)O[C@H]2CO[C@@H](c3cc(Nc4ncnc5sncc45)n[nH]3)C2)CC1 [Example 725] | ≤ 100 |
| Cc1cc(CC(=O)Nc2cc([C@H]3CC[C@@H](NC(=O)[C@@H](O)C(C)C)C3)[nH]n2)on1 (single isomer, unassigned) [Example 482] | 1000 to 100000 |
| COCc1cc2c(Nc3cc([C@H]4C[C@@H](OC(=O)N[C@@H](C)C5COC5)CO4)[nH]n3)nccn2n1 [Example 686] | 100 to 250 |
| COCc1cc2c(Nc3cc([C@H]4C[C@@H](OC(=O)N[C@@H](C)C(C)C)CO4)[nH]n3)nccn2n1 [Example 665] | ≤ 100 |
| Cc1ncccc1O[C@@H]1CC[C@H](c2cc(Nc3nccn4nccc34)n[nH]2)C1 (single isomer, unassigned) [Example 484] | 250 to 1000 |
| CC(C)c1nc(Nc2cc([C@H]3C[C@@H](OC(=O)NC4(C)CC4)CO3)[nH]n2)c2cc[nH]c2n1 [Example 744] | 100 to 250 |
| Cc1cc(CC(=O)Nc2cc([C@@H]3CC[C@H](Oc4ccccc4)C3)[nH]n2)on1 (single isomer, unassigned) [Example 350] | 1000 to 100000 |
| CC(C)NC(=O)O[C@@H]1CC[C@H](c2cc(Nc3ccc4c(c3)C(C)(C)NC4=O)n[nH]2)C1 (single isomer, unassigned) [Example 548] | ≤ 100 |
| COC(=O)c1cnc(C)cc1Nc1cc(C2CCCC2)[nH]n1 [Example 803] | 1000 to 100000 |
| CCCCOc1ccc(Nc2cc(C3CCCC3)[nH]n2)nc1 [Example 808] | 1000 to 100000 |
| Cc1cc(CC(=O)Nc2cc([C@@H]3CC[C@H](Cc4cn[nH]c4C(C)C)C3)[nH]n2)on1 (single isomer, unassigned) [Example 408] | 250 to 1000 |

Other lines, results leading:

| IC50 [nM] | Compound |
| --- | --- |
| 1000 to 100000 | COCc1cc(C(=O)Nc2cc([C@H]3CC[C@@H](Cc4ncc(C)s4)C3)[nH]n2)n(C)n1 (single isomer, unassigned) [Example 554] |
| 250 to 1000 | COCc1cc(C(=O)Nc2cc([C@H]3CC[C@@H](OC(=O)NC(C)C)CC3)[nH]n2)n(C)n1 [Example 626] |
| 1000 to 100000 | COCc1cc(C(=O)Nc2cc([C@@H]3CC[C@H](Oc4ccc(C(C)C)nn4)C3)[nH]n2)n(C)n1 (single isomer, unassigned) [Example 449] |
| 1000 to 100000 | COCc1cc(C(=O)Nc2cc([C@H]3CC[C@@H](Oc4ccc(C)nc4)C3)[nH]n2)n(C)n1 (single isomer, unassigned) [Example 395] |
| 1000 to 100000 | COCc1cc(C(=O)Nc2cc([C@H]3CC[C@@H](Oc4cnccc4C)C3)[nH]n2)n(C)n1 (single isomer, unassigned) [Example 366] |
| 1000 to 100000 | COCc1cc(C(=O)Nc2cc([C@@H]3CC[C@H](c4ccc(C)cn4)C3)[nH]n2)n(C)n1 (single isomer, unassigned) [Example 598] |
| ≤ 100 | C[C@H](NC(=O)O[C@H]1CO[C@@H](c2cc(NC(=O)c3cc(OCC(F)F)nn3C)n[nH]2)C1)C1CC1 [Example 916] |
| ≤ 100 | Cn1nc(C=O)cc1C(=O)Nc1cc([C@H]2C[C@@H](OC(=O)NC3(C)CC3)CO2)[nH]n1 [Example 883] |
| 1000 to 100000 | COCc1cc(C(=O)Nc2cc([C@@H]3CC[C@H](c4ccc(C(C)C)cn4)C3)[nH]n2)n(C)n1 (single isomer, unassigned) [Example 553] |
| 250 to 1000 | COCc1cc(C(=O)Nc2cc([C@@H]3CC[C@H](Oc4ccccc4)C3)[nH]n2)n(C)n1 (single isomer, unassigned) [Example 365] |
| ≤ 100 | COCc1cc(C(=O)Nc2cc([C@H]3CC[C@@H](Oc4nnccc4C4CC4)C3)[nH]n2)n(C)n1 (single isomer, unassigned) [Example 470] |
| ≤ 100 | COCc1cc(C(=O)Nc2cc([C@H]3CC[C@@H](Oc4nnccc4C4CCC4)C3)[nH]n2)n(C)n1 (single isomer, unassigned) [Example 550] |
| 250 to 1000 | COCc1cc(C(=O)Nc2cc([C@@H]3CC[C@H](Oc4cccnc4C)C3)[nH]n2)n(C)n1 (single isomer, unassigned) [Example 386] |
| ≤ 100 | CC(C)NC(=O)OC[C@H]1C[C@@H](c2cc(Nc3ccc4c(n3)C(C)(C)NC4=O)n[nH]2)C1 [Example 589] |
| 1000 to 100000 | COCc1cc(C(=O)Nc2cc(N3CC(COC(=O)NC(C)C)C3)[nH]n2)n(C)n1 [Example 558] |
| ≤ 100 | COCc1cc(C(=O)Nc2cc([C@@H]3CC[C@H](Oc4nnccc4C(C)C)C3)[nH]n2)n(C)n1 (single isomer, unassigned) [Example 411] |
| 100 to 250 | COCc1cc(C(=O)Nc2cc([C@H]3CC[C@@H](Oc4cccnc4C(C)C)C3)[nH]n2)n(C)n1 (single isomer, unassigned) [Example 472] |
| ≤ 100 | C[C@@H](NC(=O)O[C@H]1CO[C@@H](c2cc(NC(=O)c3cc(OCC(F)F)nn3C)n[nH]2)C1)C1CC1 [Example 915] |
| 1000 to 100000 | COCc1cc(C(=O)Nc2cc([C@H]3C[C@](C)(CC(=O)NC(C)C)C3)[nH]n2)n(C)n1 [Example 533] |
| ≤ 100 | Cn1nc(COC(F)(F)F)cc1C(=O)Nc1cc([C@H]2C[C@@H](OC(=O)NC(C)(C)C#N)CO2)[nH]n1 [Example 879] |
| ≤ 100 | C[C@H](NC(=O)O[C@@H]1CO[C@H](c2cc(NC(=O)c3cc(OCC(F)(F)F)nn3C)n[nH]2)C1)C1CC1 [Example 920] |
| 1000 to 100000 | COCc1cc(C(=O)Nc2cc([C@@H]3CC[C@@H](c4cccc(C(C)C)n4)C3)[nH]n2)n(C)n1 (single isomer, unassigned) [Example 608] |
